Results taken from US20100298141A1, “SUBSTITUTED PYRIDINE N-OXIDE HERBICIDES” (E. I. DU PONT DE NEMOURS AND COMPANY, priority 2007, published 2010).

Columns and labels:
bermudagrass = experiment: Test C pre-/postemergence test; format: in vivo, Cynodon dactylon
Text: (§1) Seeds of plant species selected from blackgrass (Alopecurus myosuroides), downy brome (Bromus tectorum), green foxtail (Setaria viridis), Italian ryegrass (Lolium multiflorum), wheat (Triticum aestivum), wild oat (Avena fatua), catchweed bedstraw (Galium aparine), Russian thistle (Salsola kali), […] (Cynodon dactylon), Surinam grass (Brachiaria decumbens), cocklebur (Xanthium strumarium), corn (Zea mays), crabgrass (Digitaria sanguinalis), woolly cupgrass (Eriochloa villosa), giant foxtail (Setaria faberii), Goosegrass (Eleusin indica), johnsongrass (Sorghum halepense), kochia (Kochia scoparia), lambsquarters (Chenopodium album), morningglory (Ipomoea coccinea), eastern black nightshade (Solanum ptycanthum), yellow nutsedge (Cyperus esculentus), pigweed (Amaranthus retroflexus), common ragweed (Ambrosia elation), soybean (Glycine max), common (oilseed) sunflower (Helianthus annuus), and velvetleaf (Abutilon theophrasti) were planted and treated preemergence with test chemicals formulated in a non-phytotoxic solvent mixture which included a surfactant. At the same time, plants selected from these crop and weed species and also winter barley (Hordeum vulgare), canarygrass (Phalaris minor), and chickweed (Stellaria media) were treated with postemergence applications of some of the test chemicals formulated in the same manner. Plants ranged in height from 2 to 18 cm (1- to 4-leaf stage) for postemergence treatments. […] At time of treatment, test pots were flooded to 3 cm above the soil surface, treated by application of test compounds directly to the paddy water, and then maintained at that water depth for the duration of the test. […] A dash (-) response means no test result.

soybean = experiment: Test C pre-/postemergence test; format: in vivo, Glycine max
Text: as §1

barnyardgrass = experiment: Test C flooded paddy test; format: in vivo, Echinochloa crus-galli; conditions: Flood
Summary of the method: (§2)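 Ratings were visual and made relative to untreated controls after 13 to 15 greenhouse days.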

[1] = test system: common (oilseed) sunflower; experiment: Test C pre-/postemergence test; format: in vivo, Helianthus annuus
Text: as §1

crabgrass = experiment: Test A pre-/postemergence greenhouse test; format: in vivo, Digitaria sanguinalis; conditions: for Crabgrass, Large plant response rating: 0 to 100 scale; for Plant response rating, Crabgrass, Large: 0 to 100 scale where 0 is no effect and 100 is complete control
Summary of the method: (§3)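 Pots of loam–sand soil sown with the test species are sprayed preemergence on the soil surface; emerged seedlings (1–2 leaves, 2–10 cm) are sprayed postemergence at the same time. The vehicle is a non-phytotoxic solvent mixture with surfactant. Injury is scored visually after ~10 d in greenhouse.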

morningglory [2] = experiment: Test C pre-/postemergence test; format: in vivo, Ipomoea coccinea
Text: as §1

corn = experiment: Test A pre-/postemergence greenhouse test; format: in vivo, Zea mays; conditions: for Corn plant response rating: 0 to 100 scale; for Plant response rating, Corn: 0 to 100 scale where 0 is no effect and 100 is complete control
Summary of the method: as §3

yellow nutsedge = experiment: Test C pre-/postemergence test; format: in vivo, Cyperus esculentus
Text: as §1

umbrella sedge = experiment: Test C flooded paddy test; format: in vivo, Cyperus difformis; conditions: Flood
Summary of the method: as §2

pigweed = experiment: Test C pre-/postemergence test; format: in vivo, Amaranthus retroflexus
Text: as §1

Goosegrass = experiment: Test C pre-/postemergence test; format: in vivo, Eleusin indica
Text: as §1

wheat [3] = experiment: Test A pre-/postemergence greenhouse test; format: in vivo, Triticum aestivum; conditions: for Wheat plant response rating: 0 to 100 scale; for Plant response rating, Wheat: 0 to 100 scale where 0 is no effect and 100 is complete control
Summary of the method: as §3

morningglory [4] = experiment: Test A pre-/postemergence greenhouse test; format: in vivo, Ipomoea spp.; conditions: for Morningglory plant response rating: 0 to 100 scale; for Plant response rating, Morningglory: 0 to 100 scale where 0 is no effect and 100 is complete control
Summary of the method: as §3

giant foxtail = experiment: Test A pre-/postemergence greenhouse test; format: in vivo, Setaria faberi; conditions: for Foxtail, Giant plant response rating: 0 to 100 scale; for Plant response rating, Foxtail, Giant: 0 to 100 scale where 0 is no effect and 100 is complete control
Summary of the method: as §3

wheat [5] = experiment: Test C pre-/postemergence test; format: in vivo, Triticum aestivum; conditions: Postemergence; for Plant response rating, Wheat: scale 0 to 100, 0 no effect, 100 complete control
Text: as §1

Italian ryegrass = experiment: Test C pre-/postemergence test; format: in vivo, Lolium multiflorum; conditions: Postemergence; for Plant response rating, Ryegrass, Italian: scale 0 to 100, 0 no effect, 100 complete control
Text: as §1

[6] = 125 g ai/ha, preemergence, scale 0 (no effect) to 100 (complete control)
[7] = Preemergence, 31 g ai/ha, scale 0 to 100 (0 no effect, 100 complete control)
[8] = preemergence, 250 g ai/ha, scale 0 (no effect) to 100 (complete control)
[9] = 62 g ai/ha, Preemergence, scale 0 to 100
[10] = 31 g ai/ha, scale 0 to 100 (0 no effect, 100 complete control)
[11] = 62 g ai/ha, scale 0 to 100, 0 no effect, 100 complete control, 13 to 15 days
[12] = 125 g ai/ha, scale 0 to 100, 0 no effect, 100 complete control, 13 to 15 days
[13] = 250 g ai/ha, scale 0 to 100, 0 no effect, 100 complete control, 13 to 15 days
[14] = Postemergence, 125 g ai/ha, 0 is no effect, 100 is complete control
[15] = Postemergence, 500 g ai/ha, 0 is no effect, 100 is complete control
[16] = Preemergence, 125 g ai/ha, 0 no effect, 100 complete control
[17] = Postemergence, 62 g ai/ha, scale 0 to 100, 0 no effect, 100 complete control
[18] = Postemergence, 125 g ai/ha, scale 0 to 100, 0 no effect, 100 complete control
[19] = Postemergence, 250 g ai/ha, scale 0 to 100, 0 no effect, 100 complete control
[20] = 62 g ai/ha, scale 0 to 100 (0 no effect, 100 complete control)

Cn1nc(C(F)(F)F)c(C[S+]([O-])c2cc(Cl)cc[n+]2[O-])c1Cl (racemic) [Compound 39]
10: Soybean plant response rating (soybean; [6]) | Soybean plant response rating (soybean; [8])
90: Crabgrass, Large plant response rating (crabgrass; [16]) | Plant response rating, Crabgrass, Large (crabgrass; Preemergence, 500 g ai/ha) | Foxtail, Giant plant response rating (giant foxtail; [15])
98: Plant response rating, Goosegrass (Goosegrass; [7])
85: Plant response rating, Bermudagrass (bermudagrass; [7]) | Nutsedge, Yellow plant response rating (yellow nutsedge; [6]) | Nutsedge, Yellow plant response rating (yellow nutsedge; [8]) | Plant response rating, Sedge, Umbrella (umbrella sedge; [11])
95: Plant response rating, Sedge, Umbrella (umbrella sedge; [12]) | Plant response rating, Sedge, Umbrella (umbrella sedge; [13])
80: Crabgrass, Large plant response rating (crabgrass; [14]) | Crabgrass, Large plant response rating (crabgrass; [15]) | Morningglory plant response rating (morningglory [2]; [9]) | Morningglory plant response rating (morningglory [4]; [16]) | Foxtail, Giant plant response rating (giant foxtail; [14])
75: Sunflower plant response rating [1, 8]
60: Wheat plant response rating (wheat [3]; [14]) | Wheat plant response rating (wheat [3]; [15]) | Morningglory plant response rating (morningglory [4]; [14])
65: Plant response rating, Barnyardgrass (barnyardgrass; [13])
30: Plant response rating, Barnyardgrass (barnyardgrass; [12]) | Plant response rating, Morningglory (morningglory [2]; [7]) | Corn plant response rating (corn; [14]) | Corn plant response rating (corn; [16])
100: Bermudagrass plant response rating (bermudagrass; 62 g ai/ha, Preemergence, scale 0 to 100 (0 no effect, 100 complete control)) | Bermudagrass plant response rating (bermudagrass; [6]) | Bermudagrass plant response rating (bermudagrass; [8]) | Morningglory plant response rating (morningglory [2]; [6]) | Morningglory plant response rating (morningglory [2]; [8]) | Pigweed plant response rating (pigweed; [9]) | Pigweed plant response rating (pigweed; [6]) | Plant response rating, Pigweed (pigweed; [7]) | Pigweed plant response rating (pigweed; [8]) | Goosegrass plant response rating (Goosegrass; [9]) | Goosegrass plant response rating (Goosegrass; [6]) | Goosegrass plant response rating (Goosegrass; [8]) | Morningglory plant response rating (morningglory [4]; [15]) | Plant response rating, Morningglory (morningglory [4]; Preemergence, 500 g ai/ha) | Foxtail, Giant plant response rating (giant foxtail; [16]) | Plant response rating, Foxtail, Giant (giant foxtail; Preemergence, 500 g ai/ha)
50: Corn plant response rating (corn; [15]) | Plant response rating, Corn (corn; Preemergence, 500 g ai/ha) | Nutsedge, Yellow plant response rating (yellow nutsedge; [9]) | Plant response rating, Nutsedge, Yellow (yellow nutsedge; [7]) | Wheat plant response rating (wheat [3]; [16])
0: Soybean plant response rating (soybean; [9]) | Plant response rating, Soybean (soybean; [7]) | Plant response rating, Barnyardgrass (barnyardgrass; [10]) | Plant response rating, Barnyardgrass (barnyardgrass; [11]) | Sunflower plant response rating [1, 9] | Sunflower plant response rating [1, 6] | Plant response rating, Sunflower [1, 7]
70: Plant response rating, Sedge, Umbrella (umbrella sedge; [10]) | Plant response rating, Wheat (wheat [3]; Preemergence, 500 g ai/ha)

Cn1nc(C(F)(F)F)c(C[S+]([O-])c2cccc[n+]2[O-])c1OCC(F)(F)C(F)(F)F (stereo not drawn) [Compound 78]
40: Corn plant response rating (corn; [15])
10: Plant response rating, Wheat (wheat [5]; 125 g ai/ha) | Plant response rating, Wheat (wheat [5]; 250 g ai/ha) | Plant response rating, Goosegrass (Goosegrass; [18])
30: Plant response rating, Ryegrass, Italian (Italian ryegrass; 125 g ai/ha) | Plant response rating, Ryegrass, Italian (Italian ryegrass; 250 g ai/ha) | Crabgrass, Large plant response rating (crabgrass; [16]) | Corn plant response rating (corn; [16]) | Plant response rating, Pigweed (pigweed; [18]) | Plant response rating, Wheat (wheat [3]; Postemergence, 125 g ai/ha) | Wheat plant response rating (wheat [3]; [16]) | Plant response rating, Morningglory (morningglory [4]; Postemergence, 125 g ai/ha)
100: Plant response rating, Crabgrass, Large (crabgrass; Preemergence, 500 g ai/ha) | Plant response rating, Sedge, Umbrella (umbrella sedge; [13]) | Plant response rating, Wheat (wheat [3]; Preemergence, 500 g ai/ha) | Plant response rating, Foxtail, Giant (giant foxtail; Preemergence, 500 g ai/ha)
80: Crabgrass, Large plant response rating (crabgrass; [15]) | Plant response rating, Morningglory (morningglory [4]; Preemergence, 500 g ai/ha) | Plant response rating, Foxtail, Giant (giant foxtail; Postemergence, 125 g ai/ha) | Foxtail, Giant plant response rating (giant foxtail; [15])
0: Plant response rating (0 to 100), Bermudagrass (bermudagrass; Postemergence, 31 g ai/ha) | Plant response rating, Bermudagrass (bermudagrass; [17]) | Plant response rating, Bermudagrass (bermudagrass; [18]) | Plant response rating, Bermudagrass (bermudagrass; [19]) | Plant response rating (0 to 100), Wheat (wheat [5]; 31 g ai/ha) | Plant response rating (0 to 100), Wheat (wheat [5]; 62 g ai/ha) | Plant response rating (0 to 100), Ryegrass, Italian (Italian ryegrass; 31 g ai/ha) | Plant response rating (0 to 100), Ryegrass, Italian (Italian ryegrass; 62 g ai/ha) | Plant response rating, Barnyardgrass (barnyardgrass; [20]) | Plant response rating (0 to 100), Morningglory (morningglory [2]; Postemergence, 31 g ai/ha) | Plant response rating, Morningglory (morningglory [2]; [17]) | Plant response rating, Morningglory (morningglory [2]; [18]) | Plant response rating, Morningglory (morningglory [2]; [19]) | Plant response rating (0 to 100), Nutsedge, Yellow (yellow nutsedge; Postemergence, 31 g ai/ha) | Plant response rating, Nutsedge, Yellow (yellow nutsedge; [17]) | Plant response rating, Nutsedge, Yellow (yellow nutsedge; [18]) | Plant response rating, Nutsedge, Yellow (yellow nutsedge; [19]) | Plant response rating (0 to 100), Pigweed (pigweed; Postemergence, 31 g ai/ha) | Plant response rating (0 to 100), Pigweed (pigweed; Postemergence, 62 g ai/ha) | Plant response rating (0 to 100), Goosegrass (Goosegrass; Postemergence, 31 g ai/ha) | Plant response rating, Goosegrass (Goosegrass; [17])
65: Plant response rating, Soybean (soybean; [19])
20: Plant response rating (0 to 100), Soybean (soybean; Postemergence, 62 g ai/ha) | Plant response rating, Corn (corn; Postemergence, 125 g ai/ha) | Morningglory plant response rating (morningglory [4]; [16])
75: Plant response rating, Sedge, Umbrella (umbrella sedge; [20])
90: Plant response rating, Corn (corn; Preemergence, 500 g ai/ha) | Foxtail, Giant plant response rating (giant foxtail; [16])
60: Plant response rating, Soybean (soybean; [18]) | Plant response rating, Goosegrass (Goosegrass; [19]) | Wheat plant response rating (wheat [3]; [15]) | Morningglory plant response rating (morningglory [4]; [15])
70: Plant response rating, Crabgrass, Large (crabgrass; Postemergence, 125 g ai/ha)
50: Plant response rating, Barnyardgrass (barnyardgrass; [13])
35: Plant response rating, Pigweed (pigweed; [19])
